Data reported in patent publication US20250163119A1, “COMPOUNDS FOR THE TREATMENT OF DIABETES OR OBESITY” (Eli Lilly and Company, priority 2023, published 2025).
*1 amine or outer side, *2 acyl side, *3 side chain or, on linkers, in order; H or OH if unused. Where a SMILES comes first, the peptide text is derived from it. Side-chain parts run from the residue outwards. [ ]: non-standard residue; d: D form. The star is where a group is joined. C20 diacid = O=C(O)CCCCCCCCCCCCCCCCCCC(=O)*; γGlu = O=C(O)[C@H](CCC(=O)[*:2])N[*:1]; εLys = N[C@@H](CCCCN[*:1])C(=O)[*:2]; αMeL = CC(C)C[C@](C)(N)C(=O)O; Dap = NC[C@H](N)C(=O)O; AEEA = NCCOCCOCC(=O)O; Aib = CC(C)(N)C(=O)O

Molecular target: T1, human CRHR2 (Homo sapiens, UniProt Q13324)
T1 construct: expressed in transfected cells
T1 sequence (Q13324 1-438 isoform Q13324-2): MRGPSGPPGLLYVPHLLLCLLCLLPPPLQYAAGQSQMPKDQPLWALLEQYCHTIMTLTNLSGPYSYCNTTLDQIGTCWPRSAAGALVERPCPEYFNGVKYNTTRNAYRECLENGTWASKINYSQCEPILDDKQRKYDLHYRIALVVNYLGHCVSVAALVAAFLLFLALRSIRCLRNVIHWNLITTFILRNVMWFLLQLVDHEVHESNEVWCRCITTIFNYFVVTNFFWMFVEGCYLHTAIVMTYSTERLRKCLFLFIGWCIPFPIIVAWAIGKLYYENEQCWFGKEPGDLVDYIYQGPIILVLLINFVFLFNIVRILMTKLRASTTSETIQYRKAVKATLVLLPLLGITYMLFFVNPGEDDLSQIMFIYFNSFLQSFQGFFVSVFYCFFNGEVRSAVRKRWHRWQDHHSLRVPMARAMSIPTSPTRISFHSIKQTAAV
Assay: Human CRHR2 cAMP assay (HTRF) in HEK293 cells stably expressing human CRHR2
Format: cell-based
Details: HEK293 cells overexpressing human CRHR2; relative EC50, maximum 10 nM human UCN2; mean ± SE; read-out: hCRHR2 cAMP EC50 (pM, ± SE)
Procedure: The corticotropin-releasing hormone (CRH) receptor 1 and 2 (CRHR1 and CRHR2) are GPCRs that were functionally coupled to Gs proteins. Stimulation of these receptors results in an increased production of intracellular cAMP, which can be detected using standard in vitro technologies. In vitro activity of peptides was measured by the amount of cAMP formed in human CRHR1 and CRHR2 overexpressed cells.
Human CRHR1 and CRHR2 receptors were stably expressed in human embryonic kidney cells (HEK293) under control of a pcDNA expression vector. The HEK293 cell line was cultured in DMEM 1× (Gibco, 93-0152DK) supplemented with 10% FBS, 1 mM sodium pyruvate, 1×MEM NEAA, 1× GlutaMAX and 10 mM HEPES. The plasmids of human CRHR1-pQCXIP (T7364) and human CRHR2b-R2683puro (T16761) DNA were transfected into HEK293 cells using Lipo fectAMINE 3000 Transfection reagent (Invitrogen, L3000001). After 20 days under selection, the mRNA levels from different clones were measured to confirm the expression of human CRHR1 and CRHR2 genes. To determine the function of over-expressed CRHR cells, the intracellular cAMP levels in response to human UCN1 and UCN2 were measured and compared to the expression of CRHR1 and CRHR2 mRNA in each clone.
Human CRHR1 cells were cultured in DMEM 1× (Gibco, 93-0152DK) supplemented with 10% FBS, 1 mM sodium pyruvate, 1×MEM NEAA, 1×GlutaMAX, 10 mM HEPES, and 800 μg/ml G418. Human CRHR2 cells were cultured at the same media (DMEM 1×, 10% FBS, 1 mM sodium pyruvate, 1×MEM NEAA, 1×GlutaMAX, 10 mM HEPES) in the presence of 0.5 ug/mL puromycin. Cultured cells were grown to 90% confluency and harvested. The cells were frozen at 10×10e6/ml in a mixture of […] fetal bovine serum plus 7% DMSO and stored in liquid nitrogen until use.
On the day of the assay, the frozen cells were thawed and diluted in assay buffer (Phenol Red free MEM (Corning, 17-305-CV, lot #32121010), 0.1% Casein (Sigma C4765, lot #SLCG2120), 5 mM HEPES pH 7.4 containing 0.25 mM IBMX). 10 ul of human CRHR1 cells (25,000 cells) or 10 μL of human CRHR2 cells (5,000 cells) were dispensed into each well of white poly-D-lysine coated 384-well plates (Corning cat #354661). Test compounds diluted in DMSO were added (200 nL/well) in a 1:3 dilution series using ECHO acoustic liquid handler (Beckman). The mixture of cells and test compounds were incubated at 37° C. for 1 hour for the hCRHR1 plate, while the CRHR2 plates were incubated at room temperature for 30 min.
The amount of intracellular cAMP was quantitated using HTRF technology (Homogeneous Time Resolved Fluorescence; Cisbio) as per vendor instructions. Briefly, 10 uL CAMP-d2 conjugate and 10 uL anti-CAMP-cryptate conjugate in lysis buffer were incubated with the treated cells at room temperature for 60 min. The HTRF signal was immediately detected using an Envision plate reader (Perkin-Elmer) to calculate the ratio of fluorescence at 665 to 620 nm.
Raw fluorescence data for concentration curves of the peptides in Table 2 and Table 3 were converted to cAMP amount (pmol/well) using a cAMP standard curve generated for each experiment.

Molecule	EC50
CC[C@H](C)[C@H](NC(C)=O)C(=O)N[C@H](C(=O)N[C@H](C(=O)N[C@@H](CO)C(=O)N[C@@](C)(CC(C)C)C(=O)N[C@@H](CC(=O)O)C(=O)N[C@@H](C(=O)N1CCC[C@H]1C(=O)N[C@H](C(=O)NCC(=O)N[C@@](C)(CC(C)C)C(=O)N[C@@H](CC(C)C)C(=O)N[C@@H](CCC(N)=O)C(=O)N[C@H](C(=O)N[C@@H](CCCCN)C(=O)N[C@@H](CC(C)C)C(=O)N[C@@H](CCC(=O)O)C(=O)N[C@@H](CCC(N)=O)C(=O)N[C@@H](CCC(=O)O)C(=O)N[C@@H](CCCNC(=N)N)C(=O)N[C@@H](C)C(=O)N[C@@H](CCC(=O)O)C(=O)N[C@@H](CCCCN)C(=O)N[C@@H](C)C(=O)N[C@@H](CCCNC(=N)N)C(=O)N[C@@H](CCC(N)=O)C(=O)N[C@@H](CCC(N)=O)C(=O)N[C@@H](C)C(=O)N[C@@H](CCCCNC(=O)[C@@H](N)CCCCNC(=O)CC[C@H](NC(=O)COCCOCCNC(=O)CCCCCCCCCCCCCCCCCCC(=O)O)C(=O)O)C(=O)N[C@@H](CCC(=O)O)C(=O)N[C@@H](CC(N)=O)C(=O)N[C@H](C(=O)N[C@@H](CCC(=O)O)C(=O)N[C@H](C(=O)N[C@@H](CC(C)C)C(=O)N[C@@H](C)C(=O)N[C@@H](CCC(N)=O)C(=O)N[C@H](C(N)=O)C(C)C)[C@@H](C)CC)[C@@H](C)O)[C@@H](C)CC)[C@@H](C)O)C(C)C)[C@@H](C)O)C(C)C [SEQ ID NO: 35, Ac-IVTS αMeL D (D-Val) PTG αMeL LQIKLEQERAEKARQQAK(ϵK-γE-(2-[2-(2-Amino-ethoxy)-ethoxy]-acetyl)-CO-(CH2)18-CO2H)ENTEILAQV-NH2] (Ac-IVTS[αMeL]D[dV]PTG[αMeL]LQIKLEQERAEKARQQAK([εLys-γGlu-AEEA-C20 diacid])ENTEILAQV-NH2)	5.3 ± 0.9 pM
CC[C@H](C)[C@H](NC(C)=O)C(=O)N[C@H](C(=O)N[C@H](C(=O)N[C@@H](CO)C(=O)N[C@@](C)(CC(C)C)C(=O)N[C@@H](CC(=O)O)C(=O)N[C@@H](C(=O)N1CCC[C@H]1C(=O)N[C@H](C(=O)NCC(=O)N[C@@](C)(CC(C)C)C(=O)N[C@@H](CC(C)C)C(=O)N[C@@H](CCC(N)=O)C(=O)N[C@H](C(=O)N[C@@H](CCCCN)C(=O)N[C@@H](CC(C)C)C(=O)N[C@@H](CCC(=O)O)C(=O)N[C@@H](CCC(N)=O)C(=O)N[C@@H](CCC(=O)O)C(=O)N[C@@H](CCCNC(=N)N)C(=O)N[C@@H](C)C(=O)N[C@@H](CCC(=O)O)C(=O)N[C@@H](CCCCN)C(=O)N[C@@H](C)C(=O)N[C@@H](CCCNC(=N)N)C(=O)N[C@@H](CCC(N)=O)C(=O)N[C@@H](CCC(N)=O)C(=O)N[C@@H](C)C(=O)N[C@@H](CCCCNC(=O)CC[C@H](NC(=O)COCCOCCNC(=O)[C@@H](N)CCCCNC(=O)CCCCCCCCCCCCCCCCCCC(=O)O)C(=O)O)C(=O)N[C@@H](CCC(=O)O)C(=O)N[C@@H](CC(N)=O)C(=O)N[C@H](C(=O)N[C@@H](CCC(=O)O)C(=O)N[C@H](C(=O)N[C@@H](CC(C)C)C(=O)N[C@@H](C)C(=O)N[C@@H](CCC(N)=O)C(=O)N[C@H](C(N)=O)C(C)C)[C@@H](C)CC)[C@@H](C)O)[C@@H](C)CC)[C@@H](C)O)C(C)C)[C@@H](C)O)C(C)C [SEQ ID NO: 36, Ac-IVTS αMeL D (D-Val) PTG αMeL LQIKLEQERAEKARQQAK(γE-(2-[2-(2-Amino-ethoxy)-ethoxy]-acetyl)-ϵK-CO-(CH2)18-CO2H)ENTEILAQV-NH2] (Ac-IVTS[αMeL]D[dV]PTG[αMeL]LQIKLEQERAEKARQQAK([γGlu-AEEA-εLys-C20 diacid])ENTEILAQV-NH2)	4.4 ± 0.4 pM
CC[C@H](C)[C@H](NC(C)=O)C(=O)N[C@H](C(=O)N[C@H](C(=O)N[C@@H](CO)C(=O)N[C@@](C)(CC(C)C)C(=O)N[C@@H](CC(=O)O)C(=O)N[C@@H](C(=O)N1CCC[C@H]1C(=O)N[C@H](C(=O)NCC(=O)N[C@@](C)(CC(C)C)C(=O)N[C@@H](CC(C)C)C(=O)N[C@@H](CCC(N)=O)C(=O)N[C@H](C(=O)N[C@@H](CCCCN)C(=O)N[C@@H](CC(C)C)C(=O)N[C@@H](CCC(=O)O)C(=O)N[C@@H](CCC(N)=O)C(=O)N[C@@H](CCC(=O)O)C(=O)N[C@@H](CCCNC(=N)N)C(=O)N[C@@H](C)C(=O)N[C@@H](CCC(=O)O)C(=O)N[C@@H](CCCCN)C(=O)N[C@@H](C)C(=O)N[C@@H](CCCNC(=N)N)C(=O)N[C@@H](CCC(N)=O)C(=O)N[C@@H](CCC(N)=O)C(=O)N[C@@H](C)C(=O)N[C@@H](CCCCNC(=O)CC[C@H](NC(=O)[C@@H](N)CCCCNC(=O)COCCOCCNC(=O)CCCCCCCCCCCCCCCCCCC(=O)O)C(=O)O)C(=O)N[C@@H](CCC(=O)O)C(=O)N[C@@H](CC(N)=O)C(=O)N[C@H](C(=O)N[C@@H](CCC(=O)O)C(=O)N[C@H](C(=O)N[C@@H](CC(C)C)C(=O)N[C@@H](C)C(=O)N[C@@H](CCC(N)=O)C(=O)N[C@H](C(N)=O)C(C)C)[C@@H](C)CC)[C@@H](C)O)[C@@H](C)CC)[C@@H](C)O)C(C)C)[C@@H](C)O)C(C)C [SEQ ID NO: 37, Ac-IVTS αMeL D (D-Val) PTG αMeL LQIKLEQERAEKARQQAK(γE-ϵK-(2-[2-(2-Amino-ethoxy)-ethoxy]-acetyl)-CO-(CH2)18-CO2H)ENTEILAQV-NH2] (Ac-IVTS[αMeL]D[dV]PTG[αMeL]LQIKLEQERAEKARQQAK([γGlu-εLys-AEEA-C20 diacid])ENTEILAQV-NH2)	5 ± 0.2 pM
{C20 diacid}-[Dap][AEEA][γGlu]GSPSIVTS[αMeL]DVPT[Aib][αMeL]LEKILEQERAEKARQQATEAAEILAQV-NH2 [SEQ ID NO: 52]	6.6 ± 0.5 pM
